`Clc1ccc2ncc3nc(Br)n(-c4ccccc4Cl)c3c2c1` [Example 82, 2-Bromo-8-chloro-1-(2-chloro-phenyl)-1H-imidazo[4,5-c]quinoline]: the melting point (as a rule, the temperature, or range, at which the solid turns liquid) was in the range of 183 to 192 °C.

As for `Brc1ccccc1-n1cnc2cnc3ccc(-c4ccccc4)cc3c21` [Example 53, 1-(2-Bromo-phenyl)-8-Phenyl-1H-imidazo[4,5-c]quinoline], the melting point was in the range of 128 to 129 °C.

On to `Cc1nc2cnc3ccc(Cl)cc3c2n1-c1ccccc1Cl` [Example 136, 8-Chloro-1-(2-chloro-phenyl)-2-methyl-1H-imidazo[4,5-c]quinoline], for which the melting point is 177.5 °C.

Molecule `[O-][n+]1cc2ncn(-c3ccccc3Cl)c2c2cc(Cl)ccc21` [Example 71, 8-Chloro-1-(2-chloro-phenyl)-1H-imidazo[4,5-c]quinoline 5-oxide] showed a melting point of 247 to 250 °C.

As to `Fc1ccc2ncc3ncn(-c4ccccc4F)c3c2c1` [Example 19, 8-Fluoro-1-(2-fluoro-phenyl)-1H-imidazo[4,5-c]quinoline], the melting point was in the range of 162 to 163 °C.

`N#Cc1nc2ccc(Cl)cc2c2c1ncn2-c1ccccc1Cl` [Example 74, 8-Chloro-1-(2-chloro-phenyl)-1H-imidazo[4,5-c]quinoline-4-carbonitrile]: the melting point is 248 to 250 °C.

Take `Clc1ccc2ncc3ncn(-c4ccccc4)c3c2c1` [Example 23, 8-Chloro-1-phenyl-1H-imidazo[4,5-c]quinoline]: the melting point is 240 to 242 °C.

Consider `N=C(N)Cc1ccccc1-n1cnc2cnc3ccc(-c4ccccc4)cc3c21` [Example 70, 2-[2-(8-Phenyl-imidazo[4,5-c]quinolin-1-yl)-phenyl]-acetamidine], for which the melting point was in the range of 261 to 263 °C.

Take `Clc1ccc2nc(Cl)c3ncn(-c4ccccc4Cl)c3c2c1` [Example 75, 4,8-Dichloro-1-(2-chloro-phenyl)-1H-imidazo[4,5-c]quinoline]: the melting point fell in the range of 194 to 200 °C.

`CNc1nc2ccc(Cl)cc2c2c1ncn2-c1ccccc1Cl` [Example 76, [8-Chloro-1-(2-chloro-phenyl)-1H-imidazo[4,5-c]quinolin-4-yl]-methyl-amine] returned a melting point of 210 to 212 °C.

With `N/C(=N\O)c1nc2cnc3ccc(Cl)cc3c2n1-c1ccccc1Cl` [Example 86, 8-Chloro-1-(2-chloro-phenyl)-N-hydroxy-1H-imidazo[4,5-c]quinoline-2-carboxamidine], the melting point fell in the range of 265 to 267 °C.

On to `Nc1nc2ccc(Cl)cc2c2c1ncn2-c1ccccc1Cl` [Example 73, 8-Chloro-1-(2-chloro-phenyl)-1H-imidazo[4,5c]-quinolin-4-ylamine], for which the melting point fell in the range of 262 to 263 °C.

Consider `CCc1ccc2ncc3ncn(-c4ccccc4Cl)c3c2c1` [Example 49, 1-(2-Chloro-phenyl)-ethyl-1H-imidazo[4,5-c]quinoline], for which the melting point was in the range of 156 to 158 °C.

`N/C(=N\O)c1ccccc1-n1cnc2cnc3ccc(-c4ccccc4)cc3c21` [Example 67, N-Hydroxy-2-(8-phenyl-imidazo[4,5-c]quinolin-1-yl)-benzamidine] returned a melting point of 249 to 251 °C.

`O=C(Nc1nc2ccc(Cl)cc2c2c1ncn2-c1ccccc1Cl)c1ccccc1` [Example 72, N-[8-Chloro-1-(2-chloro-phenyl)-1H-imidazo[4,5-c]quinolin-4-yl]-benzamide] registered a melting point of 255 to 258 °C.

For `Fc1ccc(-n2cnc3cnc4ccccc4c32)cc1` [Example 1, 1-(4-Fluoro-phenyl)-1H-imidazo[4,5-c]quinoline], the melting point was 161 to 162 °C.

As to `NCCc1ccc(-n2cnc3cnc4ccc(Cl)cc4c32)cc1` [Example 43, 2-[4-(8-Chloro-imidazo[4,5-c]quinolin-1-yl)-phenyl]-ethylamine], the melting point fell in the range of 140 to 141 °C.

Molecule `COc1ccc2ncc3ncn(-c4ccccc4Cl)c3c2c1` [Example 44, 1-(2-Chloro-phenyl)-8-methoxy-1H-imidazo[4,5-c]quinoline] showed a melting point of 202 to 205 °C.

(Values after patent US7998972B2, “1H-imidazo[4,5-c]quinoline derivatives in the treatment of protein kinase dependent diseases” (Novartis AG, priority 2002, dated 2011).)
